Data published in PubChem BioAssay (NCI).
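Grown in 96-well plates, cells were treated for 48 hours with each compound at five concentrations. Insufficient inhibition: endpoint recorded as highest concentration tested. GI50 = concentration required for 50% inhibition of growth. Definition used: TGI = concentration required for complete inhibition of growth.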

Assays:
Test in all cases: NCI anticancer screen, dose series, 48 h
[1] = system: MCF7 breast
[2] = system: HOP-92 NSCLC
[3] = system: OVCAR-8 ovarian
[4] = system: UACC-257 melanoma
[5] = system: NCI/ADR-RES ovarian
[6] = system: MDA-MB-435
[7] = system: RPMI-8226 leukemia
[8] = system: OVCAR-5 ovarian
[9] = system: SNB-19 CNS
[10] = system: SK-MEL-2 melanoma
[11] = system: A549 NSCLC
[12] = system: TK-10 renal
[13] = system: IGROV1 ovarian
[14] = system: U251 CNS
[15] = system: DU-145 prostate
[16] = system: NCI-H460 lung
[17] = system: SW-620 colon
[18] = system: MOLT-4 leukemia
[19] = system: LOX IMVI melanoma
[20] = system: HT29 colon
[21] = system: HCC-2998 colon
[22] = system: EKVX NSCLC
[23] = system: HOP-62 NSCLC
[24] = system: OVCAR-4 ovarian
[25] = system: 786-0 renal
[26] = system: MDA-N
[27] = system: M14 melanoma
[28] = system: MALME-3M melanoma
[29] = system: SNB-75 CNS
[30] = system: T-47D breast
[31] = system: PC-3 prostate
[32] = system: COLO 205 colon
[33] = system: ACHN renal
[34] = system: SK-MEL-28 melanoma
[35] = system: SR leukemia
[36] = system: A498 renal
[37] = system: SF-539 CNS
[38] = system: SF-268 CNS
[39] = system: CCRF-CEM leukemia
[40] = system: SK-MEL-5 melanoma
[41] = system: BT-549 breast
[42] = system: HCT-15 colon
[43] = system: HL-60(TB) leukemia
[44] = system: NCI-H522 lung
[45] = system: OVCAR-3 ovarian
[46] = system: RXF 393 renal
[47] = system: NCI-H226 lung
[48] = system: HCT-116 colon
[49] = system: HS 578T breast
[50] = system: SF-295 CNS
[51] = system: MDA-MB-231 breast
[52] = system: UACC-62 melanoma
[53] = system: SN12C renal
[54] = system: CAKI-1 renal
[55] = system: NCI-H23 lung
[56] = system: K-562 leukemia
[57] = system: SK-OV-3 ovarian
[58] = system: UO-31 renal
[59] = system: KM12 colon

O=c1oc2c([N+](=O)[O-])cc([N+](=O)[O-])cc2c2ccccc12
TGI [1]: > 100 µM
TGI [2]: > 100 µM
TGI [3]: > 100 µM
TGI [4]: > 100 µM
TGI [5]: > 100 µM
TGI [6]: > 100 µM
TGI [7]: > 100 µM
TGI [8]: > 100 µM
TGI [9]: > 100 µM
TGI [10]: > 100 µM
TGI [11]: > 100 µM
TGI [12]: > 100 µM
TGI [13]: > 100 µM
TGI [14]: > 100 µM
TGI [15]: > 100 µM
TGI [16]: > 100 µM
TGI [17]: > 100 µM
TGI [18]: > 100 µM
TGI [19]: > 100 µM
TGI [20]: > 100 µM
TGI [21]: > 100 µM
TGI [22]: > 100 µM
TGI [23]: > 100 µM
TGI [24]: > 100 µM
TGI [25]: > 100 µM
TGI [26]: > 100 µM
TGI [27]: > 100 µM
TGI [28]: > 100 µM
TGI [29]: > 100 µM
TGI [30]: > 100 µM
TGI [31]: > 100 µM
TGI [32]: > 100 µM
TGI [33]: > 100 µM
TGI [34]: > 100 µM
TGI [35]: > 100 µM
TGI [36]: > 100 µM
TGI [37]: > 100 µM
TGI [38]: > 100 µM
TGI [39]: > 100 µM
TGI [40]: > 100 µM
TGI [41]: > 100 µM
TGI [42]: > 100 µM
TGI [43]: > 100 µM
TGI [44]: > 100 µM
TGI [45]: > 100 µM
TGI [46]: > 100 µM
TGI [47]: > 100 µM
TGI [48]: > 100 µM
TGI [49]: > 100 µM
TGI [50]: > 100 µM
TGI [51]: > 100 µM
TGI [52]: > 100 µM
TGI [53]: > 100 µM
TGI [54]: > 100 µM
TGI [55]: > 100 µM
TGI [56]: > 100 µM

CCCCc1ccc(Nc2nc3c(ncn3COCCBr)c(=O)[nH]2)cc1
TGI [1]: > 100 µM
TGI [2]: > 100 µM
TGI [3]: > 100 µM
TGI [4]: > 100 µM
TGI [5]: > 100 µM
TGI [6]: > 100 µM
TGI [7]: > 100 µM
TGI [8]: > 100 µM
TGI [9]: > 100 µM
TGI [10]: > 100 µM
TGI [11]: > 100 µM
TGI [12]: > 100 µM
TGI [13]: > 100 µM
TGI [57]: > 100 µM
TGI [14]: > 100 µM
TGI [15]: > 100 µM
TGI [16]: > 100 µM
TGI [17]: > 100 µM
TGI [18]: > 100 µM
TGI [19]: > 100 µM
TGI [20]: > 100 µM
TGI [21]: > 100 µM
TGI [22]: > 100 µM
TGI [23]: > 100 µM
TGI [24]: > 100 µM
TGI [25]: > 100 µM
TGI [26]: > 100 µM
TGI [27]: > 100 µM
TGI [28]: > 100 µM
TGI [29]: > 100 µM
TGI [30]: > 100 µM
TGI [31]: > 100 µM
TGI [32]: > 100 µM
TGI [33]: > 100 µM
TGI [35]: > 100 µM
TGI [36]: > 100 µM
TGI [37]: > 100 µM
TGI [38]: > 100 µM
TGI [39]: > 100 µM
TGI [40]: > 100 µM
TGI [41]: > 100 µM
TGI [42]: > 100 µM
TGI [43]: > 100 µM
TGI [58]: > 100 µM
TGI [44]: > 100 µM
TGI [45]: > 100 µM
TGI [59]: > 100 µM
TGI [46]: > 100 µM
TGI [47]: > 100 µM
TGI [48]: > 100 µM
TGI [49]: > 100 µM
TGI [50]: > 100 µM
TGI [51]: > 100 µM
TGI [52]: > 100 µM
TGI [53]: > 100 µM
TGI [54]: > 100 µM
TGI [55]: > 100 µM
TGI [56]: > 100 µM

CCN(CC)C(=S)SS(=O)(=O)c1ccc(N)cc1
TGI [1]: > 100 µM
TGI [2]: > 100 µM
GI50 [3]: > 100 µM
TGI [3]: > 100 µM
GI50 [4]: > 100 µM
TGI [4]: > 100 µM
GI50 [5]: > 100 µM
TGI [5]: > 100 µM
GI50 [6]: > 100 µM
TGI [6]: > 100 µM
TGI [7]: > 100 µM
TGI [8]: > 100 µM
TGI [9]: > 100 µM
TGI [10]: > 100 µM
TGI [11]: > 100 µM
GI50 [12]: > 100 µM
TGI [12]: > 100 µM
TGI [13]: > 100 µM
TGI [57]: > 100 µM
GI50 [14]: > 100 µM
TGI [14]: > 100 µM
GI50 [15]: > 100 µM
TGI [15]: > 100 µM
TGI [16]: > 100 µM
GI50 [17]: > 100 µM
TGI [17]: > 100 µM
TGI [18]: > 100 µM
GI50 [19]: > 100 µM
TGI [19]: > 100 µM
TGI [20]: > 100 µM
TGI [21]: > 100 µM
TGI [22]: > 100 µM
TGI [23]: > 100 µM
GI50 [24]: > 100 µM
TGI [24]: > 100 µM
TGI [25]: > 100 µM
TGI [26]: > 100 µM
TGI [27]: > 100 µM
GI50 [28]: 46.2 µM
TGI [28]: > 100 µM
GI50 [29]: 48.5 µM
TGI [29]: > 100 µM
TGI [30]: > 100 µM
GI50 [31]: 90.8 µM
TGI [31]: > 100 µM
GI50 [32]: > 100 µM
TGI [32]: > 100 µM
TGI [33]: > 100 µM
GI50 [34]: > 100 µM
TGI [34]: > 100 µM
TGI [35]: > 100 µM
TGI [36]: > 94.2 µM
GI50 [38]: > 100 µM
TGI [38]: > 100 µM
GI50 [39]: > 100 µM
TGI [39]: > 100 µM
TGI [40]: > 100 µM
GI50 [41]: > 100 µM
TGI [41]: > 100 µM
GI50 [42]: > 100 µM
TGI [42]: > 100 µM
GI50 [43]: > 100 µM
TGI [43]: > 100 µM
TGI [58]: > 100 µM
TGI [44]: > 26.6 µM
GI50 [45]: > 100 µM
TGI [45]: > 100 µM
TGI [59]: > 100 µM
TGI [46]: > 100 µM
GI50 [47]: 99.2 µM
TGI [47]: > 100 µM
GI50 [48]: > 100 µM
TGI [48]: > 100 µM
TGI [49]: > 100 µM
GI50 [50]: > 100 µM
TGI [50]: > 100 µM
GI50 [51]: > 100 µM
TGI [51]: > 100 µM
TGI [52]: > 100 µM
GI50 [53]: > 100 µM
TGI [53]: > 100 µM
TGI [54]: > 90.2 µM
TGI [55]: > 100 µM
TGI [56]: > 100 µM

CCCCCCCCCCCCCCCC(=O)Nc1ccn(C2CC(OP(=O)(O)OCC3OC(n4cc(F)c(=O)[nH]c4=O)CC3OC(C)=O)C(CO)O2)c(=O)n1 (stereo unspecified)
TGI [1]: > 100 µM
TGI [2]: > 100 µM
TGI [3]: > 52.3 µM
TGI [4]: > 100 µM
TGI [5]: 46.1 µM
TGI [6]: > 94.8 µM
TGI [7]: 27.9 µM
TGI [8]: > 64.5 µM
TGI [9]: > 63.2 µM
TGI [10]: > 63.4 µM
TGI [11]: > 41.3 µM
TGI [12]: > 100 µM
TGI [13]: > 100 µM
TGI [57]: > 51.6 µM
TGI [14]: 71.8 µM
TGI [15]: > 100 µM
TGI [16]: > 100 µM
TGI [17]: > 100 µM
TGI [18]: 34.4 µM
TGI [19]: > 100 µM
TGI [20]: 52.8 µM
TGI [21]: > 36.5 µM
TGI [22]: > 100 µM
TGI [23]: 13.3 µM
TGI [24]: > 100 µM
TGI [25]: > 100 µM
TGI [26]: > 100 µM
TGI [27]: > 39.7 µM
TGI [29]: > 51.6 µM
TGI [30]: > 100 µM
TGI [31]: 25.2 µM
TGI [32]: > 66.3 µM
TGI [33]: 3.54 µM
TGI [34]: > 100 µM
TGI [35]: 22.7 µM
TGI [36]: > 100 µM
TGI [37]: > 39.5 µM
TGI [38]: > 44.4 µM
TGI [39]: > 100 µM
TGI [40]: > 96.5 µM
TGI [41]: 62.2 µM
TGI [42]: > 65.4 µM
TGI [43]: > 21.9 µM
TGI [58]: 2.75 µM
TGI [44]: 37.7 µM
TGI [45]: > 100 µM
TGI [59]: 48.1 µM
TGI [46]: > 71 µM
TGI [47]: > 100 µM
TGI [48]: > 100 µM
TGI [49]: 90.9 µM
TGI [50]: > 45.2 µM
TGI [51]: > 61.5 µM
TGI [52]: > 47.2 µM
TGI [53]: > 49.9 µM
TGI [54]: > 35.7 µM
TGI [55]: > 63.9 µM
TGI [56]: > 100 µM
